Data reported in patent US20090017103A1, “Antisense oligonucleotides for prevention of metastasis formation of cancer cells” (priority 2003, published 2009).
Values joined by “and” are separate entries in the source; they are usually repeats but may differ in a detail not shown here. Identical values can stand only once.

How the values were obtained:
osteopontin = assay: Western blot of osteopontin expression after exposure to ASOs; assay type: cell-based, human; conditions: MDA-MB231, lipofectamine, 10 μM
bone sialoprotein II = assay: Western blot of bone sialoprotein II expression after exposure to ASOs; assay type: cell-based, human; conditions: 10 μM
osteonectin = assay: Western blot of osteonectin expression after exposure to ASOs; assay type: cell-based, human; conditions: single exposure, lipofectamine, 10 μM
MDA-MB-231^GFP cells [1] = assay: In vivo treatment with mini-osmotic pumps (osteolytic bone metastasis model);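 on Mean size of lesion: mean lesion size in relative units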;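 on Size of lesion (per animal): lesion size in relative units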; parameters: species or system nude rats; conditions: for X-ray scan of hind legs: lytic lesions (in words): FIG. 5-7; for T/C × 100: mean lesion size vs NSO control rats; for Mean size of lesion / Size of lesion (per animal): mini-osmotic pumps; for Incidence of metastasis: mini-osmotic pumps s.c., 7 mg/kg daily over four weeks
MDA-MB-231^GFP cells [2] = assay: In vivo model with pretreated MDA-MB-231^GFP cells (osteolytic bone metastasis); parameters: species or system nude rats; lesion size of the rat(s) that developed lytic metastasis, % of control / lesion sizes with respect to all animals of the group compared to untreated control / lesion size of individual animal compared to the untreated control / T/C % (mean lesion size compared to untreated control): concentration or dose not given beside the values; conditions: for T/C × 100: mean lesion size vs untreated control rats; for Incidence of metastasis: cells pretreated in vitro (10 μM);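 on Mean size of lesion: mean lesion size in relative units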
[3] = test system: MDA-MB-231 breast cancer cells; assay: Clonogenicity assay (colony formation); assay type: cell-based, human; conditions: 20 μM
Method: For determining the response of MDA-MB-231 colony formation to exposure with antisense oligonucleotides and erucylphospho-NNN-trimethylpropanolamine (ErPC3) the following procedure was used. MDA-MB-231 cells were treated for various periods of time (see below), harvested and counted. Cells (5000) were then transferred into semi-solid medium containing 0.8t RPMI-methylcellulose and 30% FBS. Cells were plated onto 3.5 cm Petri-dishes (1 ml/dish) (NUNC, Wiesbaden, Germany) and usual cell culture conditions (37° C., 5% CO2 in humidified air) were applied. Colony formation (clusters of 30 or more cells) was visualized by staining with 3-[4,5-dimethylthiazol-2-yl]-2,5-diphenyltetrazolium-bromide (MTT; Serva, Heidelberg, Germany) and the resulting dark blue colonies were scored by an inverted microscope after 5-7 days. At least three dishes per treatment protocol were used.
Pending on the duration of treatment, 1×10^5-3×10^5 cells were transferred onto 6 well plates (Nunc, Wiesbaden, Germany) and grown for 24 h. For transfection, ASO stock solutions were prepared in medium without FBS. According to the protocol of the manufacturer, the respective ASO stock solution was mixed with lipofectamine to allow ASO-liposome complexes to form. To 200 μl medium containing ASO quantities resulting in 10 μM (Western blot and in vivo model) and in 5, 10, or 20 μM (clonogenicity assay) final ASO-concentrations, an equal volume of medium without FBS was added containing 5, 10, or 20 μl lipofectamine, respectively. In addition to the ASO treatment, a NSO control (20 μM final concentration with 20 μl lipofectamine) and a lipofectamine control (20 μl) were used. […] After 12 h the medium was changed, and cells were further grown for 48-72 h. In the case of a sequential combination treatment this first cycle was repeated with the respective combination partner.
The alkylphosphocholine ErPC3 was synthesized and provided by Prof. H. Eibl (MPI of Biophysical Chemistry, Göttingen, FRG). For treating MDA-MB-231 cells, ErPC3 which was kept as stock solution in ethanol and PBS (10 mM; ratio of diluents 1:1; V:V), was diluted in PBS resulting in final concentrations of 10, 14, and 20 μM. The medium containing ErPC3 was changed after 24 h in all experiments and the cells were further grown for 48-72 h without ErPC3 (for details of sequential exposure see below).
Sequential combination treatment consisted of two or three treatment cycles. The two cycle treatment started either with the ASO and was followed by ErPC3 or was performed with the reverse sequence. The three cycle treatment started either with two cycles of ASO followed by ErPC3 or an initial exposure to ErPC3 was followed by two cycles with an ASO.
Colony counts are presented as mean with corresponding standard deviation. For comparison of incidences between treatment groups the x^2 test was used and for comparison of the lesion sizes the Kruskal-Wallis test was applied. P values≦0.05 were considered significant. Predicted theoretical values of combinations were calculated according to the equation: C=a×b/100, where a and b are colony counts in percent of untreated control obtained in response to single agents. For each concentration applied theoretical values were calculated and compared with the real value of the combination. In addition, isobologram and multiple drug effect analysis was examined by a suitable program (CalcuSyn, Biosoft, Ferguson, USA) to study the nature of the interaction observed. For this purpose, the dose-effect curve for each drug alone was determined based on the experimental observations using the median-effect principle; the combination index (CI) for each combination was then calculated according to the following equation:
CI=(D)1/(Dx)1+(D)2/(Dx)2+(D1)×(D2)/(Dx)1×(Dx)2
where (D)1 and (D)2 are the doses of drug 1 and drug 2 that have x effect when used in combination and (Dx)1 and (Dx)2 are the doses of drug 1 and drug 2 that have the same x effect when used alone. […]

“5′-GCGAGGGAGTTCTTCTTCTA-3′ (GCGAGGGAGTTCTTCTTCTA; phosphorothioate backbone, further chemistry not given here) [NSO, reference compound]” was tested, and the “osteopontin expression in relation to untreated control (100%)” value (osteopontin; single exposure) was 99.5%, the “osteopontin expression in relation to untreated control (100%)” value (osteopontin; twofold exposure) was 99% and the “bone sialoprotein II expression in relation to untreated control (100%)” value (“bone sialoprotein II expression … (100%)” below) (bone sialoprotein II; MDA-MB231, single exposure, electroporation) was 99%. The “bone sialoprotein II expression … (100%)” value (bone sialoprotein II; MDA-MB231, single exposure, lipofectamine) was 100%, the “bone sialoprotein II expression … (100%)” value (bone sialoprotein II; MDA-MB231, twofold exposure, lipofectamine) was 97% and the “bone sialoprotein II expression … (100%)” value (bone sialoprotein II; MDA-MB231^F (growing without FBS), single exposure, lipofectamine) was 100%. For the same substance, the “bone sialoprotein II expression … (100%)” value (bone sialoprotein II; MDA-MB435s, single exposure, lipofectamine) was 65%, the “osteonectin expression in relation to untreated control (100%)” value (from here on “osteonectin expression in relation … (100%)”) (osteonectin; MDA-MB231) was 94% and the “osteonectin expression in relation … (100%)” value (osteonectin; MDA-MB231^F (growing without FBS)) was 80%. For the same substance, the “osteonectin expression in relation … (100%)” value (osteonectin; MDA-MB435s) was 97%, the “X-ray scan of hind legs: lytic lesions (in words)” value (MDA-MB-231^GFP cells [1]; eight weeks after tumor cell implantation) was “clear increase of lytic lesions in the tibia and fibula” and the “X-ray scan of hind legs: lytic lesions (in words)” value (MDA-MB-231^GFP cells [1]; four weeks after tumor cell implantation, therapy from implantation) was “small lytic lesions in the tibia”. For the same substance, the “X-ray scan of hind legs: lytic lesions (in words)” value (MDA-MB-231^GFP cells [1]; six weeks after tumor cell implantation) was “visible lytic lesions in the tibia and fibula”, the “X-ray scan of hind legs: lytic lesions (in words)” value (MDA-MB-231^GFP cells [1]; ten weeks after tumor cell implantation) was “lytic metastases with clear deterioration are visible in all regions of the right hind leg” and the “T/C × 100” value (MDA-MB-231^GFP cells [1]; week 4) was 100. The “Mean size of lesion” value (MDA-MB-231^GFP cells [1]; week 4) was 33 R.U, the “Size of lesion (per animal)” value (MDA-MB-231^GFP cells [1]; week 4) was 45 R.U. and 8 R.U. and 46 R.U and the Incidence of metastasis (MDA-MB-231^GFP cells [1]; week 4) was 3/3. For the same substance, the “T/C × 100” value (MDA-MB-231^GFP cells [1]; week 6) was 100, the “Mean size of lesion” value (MDA-MB-231^GFP cells [1]; week 6) was 177 R.U and the “Size of lesion (per animal)” value (MDA-MB-231^GFP cells [1]; week 6) was 307 R.U. and 29 R.U. and 194 R.U. For the same substance, the Incidence of metastasis (MDA-MB-231^GFP cells [1]; week 6) was 3/3, the “T/C × 100” value (MDA-MB-231^GFP cells [1]; week 8) was 100 and the “Mean size of lesion” value (MDA-MB-231^GFP cells [1]; week 8) was 273 R.U. For the same substance, the “Size of lesion (per animal)” value (MDA-MB-231^GFP cells [1]; week 8) was 403 R.U. and 99 R.U. and 318 R.U, the Incidence of metastasis (MDA-MB-231^GFP cells [1]; week 8) was 3/3 and the “T/C × 100” value (MDA-MB-231^GFP cells [1]; week 9) was 100. The “Mean size of lesion” value (MDA-MB-231^GFP cells [1]; week 9) was 379 R.U, the “Size of lesion (per animal)” value (MDA-MB-231^GFP cells [1]; week 9) was 453 R.U. and 278 R.U. and 406 R.U and the Incidence of metastasis (MDA-MB-231^GFP cells [1]; week 9) was 3/3. The “T/C × 100” value (MDA-MB-231^GFP cells [1]; week 10) was 100, the “Mean size of lesion” value (MDA-MB-231^GFP cells [1]; week 10) was 429 R.U and the “Size of lesion (per animal)” value (MDA-MB-231^GFP cells [1]; week 10) was 512 R.U. and 313 R.U. and 461 R.U. For the same substance, the Incidence of metastasis (MDA-MB-231^GFP cells [1]; week 10) was 3/3, the “T/C × 100” value (MDA-MB-231^GFP cells [1]; week 12) was 100 and the “Mean size of lesion” value (MDA-MB-231^GFP cells [1]; week 12) was 434 R.U. For the same substance, the “Size of lesion (per animal)” value (MDA-MB-231^GFP cells [1]; week 12) was 534 R.U. and 316 R.U. and 453 R.U, the Incidence of metastasis (MDA-MB-231^GFP cells [1]; week 12) was 3/3 and the “T/C × 100” value (MDA-MB-231^GFP cells [2]; 4 weeks) was 78. The “T/C × 100” value (MDA-MB-231^GFP cells [2]; 6 weeks) was 95, the “T/C × 100” value (MDA-MB-231^GFP cells [2]; 8 weeks) was 140 and the “X-ray scan of hind legs: osteolytic lesions (in words)” value (MDA-MB-231^GFP cells [2]; FIG. 3 and FIG. 4, one rat each, cells pre-exposed) was “large osteolytic lesions in the femur, tibia and fibula”. For the same substance, the Incidence of metastasis (MDA-MB-231^GFP cells [2]; observation period 4 weeks) was 2/2, the “Mean size of lesion” value (MDA-MB-231^GFP cells [2]; observation period 4 weeks, pretreated cells) was 173 R.U and the Incidence of metastasis (MDA-MB-231^GFP cells [2]; observation period 6 weeks) was 2/2. For the same substance, the “Mean size of lesion” value (MDA-MB-231^GFP cells [2]; observation period 6 weeks, pretreated cells) was 287 R.U, the Incidence of metastasis (MDA-MB-231^GFP cells [2]; observation period 8 weeks) was 2/2 and the “Mean size of lesion” value (MDA-MB-231^GFP cells [2]; observation period 8 weeks, pretreated cells) was 485 R.U. The “T/C % (mean lesion size compared to untreated control)” value (MDA-MB-231^GFP cells [2]; pretreated cells, after eight weeks) was 140%, the “average lesion sizes compared to untreated control” value (MDA-MB-231^GFP cells [2]; pretreated cells, after four weeks) was “about 78%” and the “lesion sizes with respect to all animals of the group compared to untreated control” value (MDA-MB-231^GFP cells [2]; pretreated cells, over observation period week 4 to week 8) was 104%. For the same substance, the “% Control” value ([3]; Exp. III a) was 94%, the Mean colony no. ([3]; Exp. III a, control 456) was 430 and the “% Control” value ([3]; Experiment II, single treatment) was 96%. For the same substance, the Mean colony no. ([3]; Experiment II, single treatment, control 705) was 676, the “% Control” value ([3]; Experiment III b) was 97% and the Mean colony no. ([3]; Experiment III b, control 517) was 504.
